Results on two compounds are retold here after patent US6753322B2, “2-aminocarbonyl-9H-purine derivatives” (Pfizer Inc, priority 2000, dated 2004).

SMILES strings stand for the structures. A value given as a limit tells only on which side of the number the result lay.

The IC50 is the concentration that inhibits the measured activity by half. Lower therefore signals greater potency.

For the assay, the system named is neutrophils activated by fMLP. Nature of the assay: superoxide production from neutrophils activated by fMLP. The format is cell-based. Particulars: Neutrophil; concentration giving 50% inhibition of fMLP-induced superoxide production compared to control response; human peripheral blood neutrophils, cytochalasin B priming, adenosine deaminase present, cytochrome C reduction readout. As for the experimental part: This is evaluated by determining the compound profile in an assay where superoxide production was measured from neutrophils activated by fMLP. Neutrophils were isolated from human peripheral blood using dextran sedimentation followed by centrifugation through Ficoll-Hypaque solution. Any contaminating erythrocytes in the granulocyte pellet were removed by lysis with ice-cold distilled water. Superoxide production from the neutrophils was induced by fMLP in the presence of a priming concentration of cytochalasin B. Adenosine deaminase was included in the assay to remove any endogenously produced adenosine that might suppress superoxide production. The effect of the compound on the fMLP-induced response was monitored colorometrically from the reduction of cytochrome C within the assay buffer. The potency of the compounds was assessed by the concentration giving 50% inhibition (IC50) compared to the control response to fMLP.

Regarding `CC(C)N(CCNC(=O)NCCNC(=O)c1nc(NCC(c2ccccc2)c2ccccc2)c2ncn([C@@H]3O[C@H](CO)[C@@H](O)[C@H]3O)c2n1)C(C)C` [Example 4], the IC50 is less than 100 nM.

As for `CCNC(=O)[C@H]1O[C@@H](n2cnc3c(NCC(c4ccccc4)c4ccccc4)nc(C(=O)N4CC[C@H](NC(=O)NCCN(C(C)C)C(C)C)C4)nc32)[C@H](O)[C@@H]1O` [Example 29], the IC50 is less than 100 nM.
